According to patent EP0327492A1, “Herbicidally and plantgrowth regulatory active quinoline and pyrindine compounds” (CIBA-GEIGY AG, priority 1988, dated 1989):

How the values were obtained:
Assay type in all cases: in vivo
Untersaaten in Mais = assay: Pre-post selectivity: growth inhibition of undersown grasses (post-emergent) versus maize (pre-emergent)
Text: Verbindungen der Formel I zeigen in vorteilhafter Weise eine "pre-post-Selektivität" bei verscheidenen Gräsern in Maiskulturen.
Die wuchshemmende Wirkung in Gräsern ist in postemergenter Applikation stark ausgeprägt, während bei gleichzeitiger Preemergenter Applikation Maispflanzen in ihrem Wuchs nur geringfügig gehemmt werden. Derartige "pre-post-Selektivitäten" erlauben somit die Aussaat von Mais in Gräsern. Dabei soll der Zeitpunkt für die Applikation der Aktivsubstanz der Formel so gewählt werden, dass die Aktivsubstanz postemergent für die Gräser ober preemergent für den Mais angewendet wird. In den ersten Wochen ist der Zuwachs der Gräser so stark gehemmt, dass die Maispflanze sich ungehindert entfalten kann.
Eine Mischung von Gräsern (z.B. Poa, Festuca, Lolium, Bromus, Cynosurus) werden in 15 cm - Kunststofftöpfen mit steriler Landerde angesät und im Gewächshaus bei einer Tagestemperatur von 21°C und einer Nachttemperatur von 17°C angezogen. Die Beleuchtungsdauer beträgt 13,5 Stunden/Tag bei einer Lichtintensität von mind. 7000 Lux. Nach dem Ablauf werden die Pflanzen wöchentlich auf ca. 6 cm Höhe zurückgeschnitten. Ca. 42 Tage nach der Saat und 1 Tag nach dem letzten Schnitt erfolgt die Applikation mit 60-500 g Wirkstoff/ha als wässrige Spritzbrühe. Die Wasseraufwandmenge ist ca. 500 I/ha.
20 Tage nach der Behandlung wird der Versuch ausgewertet. Hierbei wird die Höhe des Neuzuwachses gemessen und in % Hemmung zum Durchschnitt der unbehandelten Kontrollen dargestellt. Die nekrotischen Schäden sind in % zur gesamten Blattfläche aufgeführt.
Mais der Sorte Blizzard G188 werden in 15 cm - Kunststofftöpfen mit steriler gesiebter Landerde angesät und im Gewächshaus bei einer Tagestemperatur von 22°C und einer Nachttemperatur von 19°C aufgestellt. Die Beleuchtungsdauer beträgt mindestens 13,5 Stunden/Tag bei einer Lichtintensität von mindestens 7000 Lux. 1 Tag nach der Saat erfolgt die Applikation mit 60-500 g Wirkstoff/ha, in der Regel 25 %ig formuliert und in wässriger Spritzbrühe. Die Wasseraufwandmenge ist ca. 200 I/ha.
16 Tage nach der Behandlung wird der Versuch ausgewertet. […]

Digitaria sang. [1] = assay: Post-emergent herbicidal action, contact herbicide (B.3); conditions: 500 bis 2000 [g/ha], 15 days after treatment
Experimental: (§1) Im Gewächshaus wird unmittelbar nach der Einsaat der Versuchspflanzen in Saatschalen die Erdoberfläche mit einer wässrigen Dispersion der Wirkstoffe, erhalten aus einem 25 %igen Emulsionskonzentrat behandelt. Es werden Konzentrationen von 2000-500 g Wirksubstanz/Hektar angewendet. Die Saatschalen werden im Gewächshaus bei 22-25° C und 50-70 % relativer Luftfeuchtigkeit gehalten und der Versuch nach 3 Wochen ausgewertet und die Resultate nach folgender Notenskala ausgewertet. • 1 Pflanze hat nicht gekeimt oder ist eingegangen • 2-3 sehr starke Schäden • 4 starke Schäden • 5 mittlere Schäden, die Pflanzen sind verkümmert • 6 Schäden, die Pflanze kann regenerieren • 7-8 leichte Schäden • 9 normales Wachstum, wie das unbehandelter Pflanzen
(§2) Boniturnoten von 1 bis 4 (insbesondere von 1 bis 3) weisen auf eine gute bis sehr gute Herbizidwirkung hin. Boniturnoten von 6 bis 9 (insbesondere 7 bis 9) weisen auf eine gute Toleranz (insbesondere bei Kulturpflanzen) hin.
(§3) Eine Anzahl Unkräuter, sowohl monokotyle wie dikotyle, werden nach dem Auflaufen (im 4- bis 6-Blattstadium) mit einer wässrigen Wirkstoffdispersion in einer Dosierung von 2000-500 g Wirksubstanz pro Hektar auf die Pflanzen gespritzt und diese bei 24°-26°C und 45-60 % relativer Luftfeuchtigkeit gehalten. 15 Tage nach der Behandlung wird der Versuch nach dem in Beispiel B.2. gegebenen Massstab bewertet.

Abutilon [2] = assay: as above; conditions: 500 bis 2000 [g/ha], 15 days after treatment
Experimental: as §1, §2, §3

Amaranthus ret. [3] = assay: as above; conditions: 500 bis 2000 [g/ha], 15 days after treatment
Experimental: as §1, §2, §3

Lolium perenne [4] = assay: as above; conditions: 500 bis 2000 [g/ha], 15 days after treatment
Experimental: as §1, §2, §3

Alopecurus myos. [5] = assay: as above; conditions: 500 bis 2000 [g/ha], 15 days after treatment
Experimental: as §1, §2, §3

Avena fatua [6] = assay: as above; conditions: 500 bis 2000 [g/ha], 15 days after treatment
Experimental: as §1, §2, §3

Echinochloa crus galli [7] = assay: as above; conditions: 500 bis 2000 [g/ha], 15 days after treatment
Experimental: as §1, §2, §3

Stellaria [8] = assay: as above; conditions: 500 bis 2000 [g/ha], 15 days after treatment
Experimental: as §1, §2, §3

Chenopodium Sp. [9] = assay: as above; conditions: 500 bis 2000 [g/ha], 15 days after treatment
Experimental: as §1, §2, §3

Bromus tectorum [10] = assay: as above; conditions: 500 bis 2000 [g/ha], 15 days after treatment
Experimental: as §1, §2, §3

Solanum nigrum [11] = assay: as above; conditions: 500 bis 2000 [g/ha], 15 days after treatment
Experimental: as §1, §2, §3

Veronica Sp. [12] = assay: as above; conditions: 500 bis 2000 [g/ha], 15 days after treatment
Experimental: as §1, §2, §3

Galium aparine [13] = assay: as above; conditions: 500 bis 2000 [g/ha], 15 days after treatment
Experimental: as §1, §2, §3

Sorghum halep. [14] = assay: as above; conditions: 500 bis 2000 [g/ha], 15 days after treatment
Experimental: as §1, §2, §3

Xanthium Sp. = assay: as above; conditions: 500 bis 2000 [g/ha], 15 days after treatment
Experimental: as §1, §2, §3

Chrysanthe. leuc. [15] = assay: as above; conditions: 500 bis 2000 [g/ha], 15 days after treatment
Experimental: as §1, §2, §3

Sinapis [16] = assay: as above; conditions: 500 bis 2000 [g/ha], 15 days after treatment
Experimental: as §1, §2, §3

Digitaria sang. [17] = assay: Pre-emergent herbicidal action (B.2); conditions: 500 bis 2000 [g/ha], evaluated after 3 weeks
Experimental: as §1, §2

Abutilon [18] = assay: Pre-emergent herbicidal action (B.2); conditions: 500 bis 2000 [g/ha], evaluated after 3 weeks
Experimental: as §1, §2

Amaranthus ret. [19] = assay: Pre-emergent herbicidal action (B.2); conditions: 500 bis 2000 [g/ha], evaluated after 3 weeks
Experimental: as §1, §2

Lolium perenne [20] = assay: Pre-emergent herbicidal action (B.2); conditions: 500 bis 2000 [g/ha], evaluated after 3 weeks
Experimental: as §1, §2

Alopecurus myos. [21] = assay: Pre-emergent herbicidal action (B.2); conditions: 500 bis 2000 [g/ha], evaluated after 3 weeks
Experimental: as §1, §2

Avena fatua [22] = assay: Pre-emergent herbicidal action (B.2); conditions: 500 bis 2000 [g/ha], evaluated after 3 weeks
Experimental: as §1, §2

Echinochloa crus galli [23] = assay: Pre-emergent herbicidal action (B.2); conditions: 500 bis 2000 [g/ha], evaluated after 3 weeks
Experimental: as §1, §2

Stellaria [24] = assay: Pre-emergent herbicidal action (B.2); conditions: 500 bis 2000 [g/ha], evaluated after 3 weeks
Experimental: as §1, §2

Chenopodium Sp. [25] = assay: Pre-emergent herbicidal action (B.2); conditions: 500 bis 2000 [g/ha], evaluated after 3 weeks
Experimental: as §1, §2

Bromus tectorum [26] = assay: Pre-emergent herbicidal action (B.2); conditions: 500 bis 2000 [g/ha], evaluated after 3 weeks
Experimental: as §1, §2

Solanum nigrum [27] = assay: Pre-emergent herbicidal action (B.2); conditions: 500 bis 2000 [g/ha], evaluated after 3 weeks
Experimental: as §1, §2

Veronica Sp. [28] = assay: Pre-emergent herbicidal action (B.2); conditions: 500 bis 2000 [g/ha], evaluated after 3 weeks
Experimental: as §1, §2

Galium aparine [29] = assay: Pre-emergent herbicidal action (B.2); conditions: 500 bis 2000 [g/ha], evaluated after 3 weeks
Experimental: as §1, §2

Sorghum halep. [30] = assay: Pre-emergent herbicidal action (B.2); conditions: 500 bis 2000 [g/ha], evaluated after 3 weeks
Experimental: as §1, §2

Chrysanthe. leuc. [31] = assay: Pre-emergent herbicidal action (B.2); conditions: 500 bis 2000 [g/ha], evaluated after 3 weeks
Experimental: as §1, §2

Sinapis [32] = assay: Pre-emergent herbicidal action (B.2); conditions: 500 bis 2000 [g/ha], evaluated after 3 weeks
Experimental: as §1, §2

Ipomoea = assay: Pre-emergent herbicidal action (B.2); conditions: 500 bis 2000 [g/ha], evaluated after 3 weeks
Experimental: as §1, §2

Compound: CC1CCCc2nc3c(cc21)C(=O)N1C(=O)C(C)(C(C)C)N=C31 (centres unmarked) [Verbindung 3.02, 2,7-Dimethyl-2-isopropyl-7,8,9,10-tetrahydro-3H,5H-imidazo[1',2':1,2]pyrrolo[3,4-b]chinolin-3,5-dion]
- "pre-post-Selektivität" bei Untersaaten in Mais (Untersaaten in Mais): ausgeprägter "pre-post-Selektivität"
- Herbizidwirkung (Digitaria sang. [1]): gute bis sehr gute Herbizidwirkung (Boniturnoten von 1 bis 4 (insbesondere von 1 bis 3) weisen auf eine gute bis sehr gute Herbizidwirkung hin)
- Herbizidwirkung (Abutilon [2]): gute bis sehr gute Herbizidwirkung (Boniturnoten von 1 bis 4 (insbesondere von 1 bis 3) weisen auf eine gute bis sehr gute Herbizidwirkung hin)
- Herbizidwirkung (Amaranthus ret. [3]): gute bis sehr gute Herbizidwirkung (Boniturnoten von 1 bis 4 (insbesondere von 1 bis 3) weisen auf eine gute bis sehr gute Herbizidwirkung hin)
- Herbizidwirkung (Lolium perenne [4]): gute bis sehr gute Herbizidwirkung (Boniturnoten von 1 bis 4 (insbesondere von 1 bis 3) weisen auf eine gute bis sehr gute Herbizidwirkung hin)
- Herbizidwirkung (Alopecurus myos. [5]): gute bis sehr gute Herbizidwirkung (Boniturnoten von 1 bis 4 (insbesondere von 1 bis 3) weisen auf eine gute bis sehr gute Herbizidwirkung hin)
- Herbizidwirkung (Avena fatua [6]): gute bis sehr gute Herbizidwirkung (Boniturnoten von 1 bis 4 (insbesondere von 1 bis 3) weisen auf eine gute bis sehr gute Herbizidwirkung hin)
- Herbizidwirkung (Echinochloa crus galli [7]): gute bis sehr gute Herbizidwirkung (Boniturnoten von 1 bis 4 (insbesondere von 1 bis 3) weisen auf eine gute bis sehr gute Herbizidwirkung hin)
- Herbizidwirkung (Stellaria [8]): gute bis sehr gute Herbizidwirkung (Boniturnoten von 1 bis 4 (insbesondere von 1 bis 3) weisen auf eine gute bis sehr gute Herbizidwirkung hin)
- Herbizidwirkung (Chenopodium Sp. [9]): gute bis sehr gute Herbizidwirkung (Boniturnoten von 1 bis 4 (insbesondere von 1 bis 3) weisen auf eine gute bis sehr gute Herbizidwirkung hin)
- Herbizidwirkung (Bromus tectorum [10]): gute bis sehr gute Herbizidwirkung (Boniturnoten von 1 bis 4 (insbesondere von 1 bis 3) weisen auf eine gute bis sehr gute Herbizidwirkung hin)
- Herbizidwirkung (Solanum nigrum [11]): gute bis sehr gute Herbizidwirkung (Boniturnoten von 1 bis 4 (insbesondere von 1 bis 3) weisen auf eine gute bis sehr gute Herbizidwirkung hin)
- Herbizidwirkung (Veronica Sp. [12]): gute bis sehr gute Herbizidwirkung (Boniturnoten von 1 bis 4 (insbesondere von 1 bis 3) weisen auf eine gute bis sehr gute Herbizidwirkung hin)
- Herbizidwirkung (Galium aparine [13]): gute bis sehr gute Herbizidwirkung (Boniturnoten von 1 bis 4 (insbesondere von 1 bis 3) weisen auf eine gute bis sehr gute Herbizidwirkung hin)
- Herbizidwirkung (Sorghum halep. [14]): gute bis sehr gute Herbizidwirkung (Boniturnoten von 1 bis 4 (insbesondere von 1 bis 3) weisen auf eine gute bis sehr gute Herbizidwirkung hin)
- Herbizidwirkung (Xanthium Sp.): gute bis sehr gute Herbizidwirkung (Boniturnoten von 1 bis 4 (insbesondere von 1 bis 3) weisen auf eine gute bis sehr gute Herbizidwirkung hin)
- Herbizidwirkung (Chrysanthe. leuc. [15]): gute bis sehr gute Herbizidwirkung (Boniturnoten von 1 bis 4 (insbesondere von 1 bis 3) weisen auf eine gute bis sehr gute Herbizidwirkung hin)
- Herbizidwirkung (Sinapis [16]): gute bis sehr gute Herbizidwirkung (Boniturnoten von 1 bis 4 (insbesondere von 1 bis 3) weisen auf eine gute bis sehr gute Herbizidwirkung hin)
- Herbizidwirkung (Digitaria sang. [17]): gute bis sehr gute Herbizidwirkung (Boniturnoten von 1 bis 4 (insbesondere von 1 bis 3) weisen auf eine gute bis sehr gute Herbizidwirkung hin)
- Herbizidwirkung (Abutilon [18]): gute bis sehr gute Herbizidwirkung (Boniturnoten von 1 bis 4 (insbesondere von 1 bis 3) weisen auf eine gute bis sehr gute Herbizidwirkung hin)
- Herbizidwirkung (Amaranthus ret. [19]): gute bis sehr gute Herbizidwirkung (Boniturnoten von 1 bis 4 (insbesondere von 1 bis 3) weisen auf eine gute bis sehr gute Herbizidwirkung hin)
- Herbizidwirkung (Lolium perenne [20]): gute bis sehr gute Herbizidwirkung (Boniturnoten von 1 bis 4 (insbesondere von 1 bis 3) weisen auf eine gute bis sehr gute Herbizidwirkung hin)
- Herbizidwirkung (Alopecurus myos. [21]): gute bis sehr gute Herbizidwirkung (Boniturnoten von 1 bis 4 (insbesondere von 1 bis 3) weisen auf eine gute bis sehr gute Herbizidwirkung hin)
- Herbizidwirkung (Avena fatua [22]): gute bis sehr gute Herbizidwirkung (Boniturnoten von 1 bis 4 (insbesondere von 1 bis 3) weisen auf eine gute bis sehr gute Herbizidwirkung hin)
- Herbizidwirkung (Echinochloa crus galli [23]): gute bis sehr gute Herbizidwirkung (Boniturnoten von 1 bis 4 (insbesondere von 1 bis 3) weisen auf eine gute bis sehr gute Herbizidwirkung hin)
- Herbizidwirkung (Stellaria [24]): gute bis sehr gute Herbizidwirkung (Boniturnoten von 1 bis 4 (insbesondere von 1 bis 3) weisen auf eine gute bis sehr gute Herbizidwirkung hin)
- Herbizidwirkung (Chenopodium Sp. [25]): gute bis sehr gute Herbizidwirkung (Boniturnoten von 1 bis 4 (insbesondere von 1 bis 3) weisen auf eine gute bis sehr gute Herbizidwirkung hin)
- Herbizidwirkung (Bromus tectorum [26]): gute bis sehr gute Herbizidwirkung (Boniturnoten von 1 bis 4 (insbesondere von 1 bis 3) weisen auf eine gute bis sehr gute Herbizidwirkung hin)
- Herbizidwirkung (Solanum nigrum [27]): gute bis sehr gute Herbizidwirkung (Boniturnoten von 1 bis 4 (insbesondere von 1 bis 3) weisen auf eine gute bis sehr gute Herbizidwirkung hin)
- Herbizidwirkung (Veronica Sp. [28]): gute bis sehr gute Herbizidwirkung (Boniturnoten von 1 bis 4 (insbesondere von 1 bis 3) weisen auf eine gute bis sehr gute Herbizidwirkung hin)
- Herbizidwirkung (Galium aparine [29]): gute bis sehr gute Herbizidwirkung (Boniturnoten von 1 bis 4 (insbesondere von 1 bis 3) weisen auf eine gute bis sehr gute Herbizidwirkung hin)
- Herbizidwirkung (Sorghum halep. [30]): gute bis sehr gute Herbizidwirkung (Boniturnoten von 1 bis 4 (insbesondere von 1 bis 3) weisen auf eine gute bis sehr gute Herbizidwirkung hin)
- Herbizidwirkung (Chrysanthe. leuc. [31]): gute bis sehr gute Herbizidwirkung (Boniturnoten von 1 bis 4 (insbesondere von 1 bis 3) weisen auf eine gute bis sehr gute Herbizidwirkung hin)
- Herbizidwirkung (Sinapis [32]): gute bis sehr gute Herbizidwirkung (Boniturnoten von 1 bis 4 (insbesondere von 1 bis 3) weisen auf eine gute bis sehr gute Herbizidwirkung hin)
- Herbizidwirkung (Ipomoea): gute bis sehr gute Herbizidwirkung (Boniturnoten von 1 bis 4 (insbesondere von 1 bis 3) weisen auf eine gute bis sehr gute Herbizidwirkung hin)
